Patent US5140018A, “1,3,2-benzodithiazole-1-oxide compounds” (Abbott Laboratories, priority 1991, dated 1992)
In brackets after ≈: the same amount, converted by molar mass.

Columns and labels:
[1] = system: Candida tropicalis NRRL-Y-112; test: In vitro antifungal MIC, Candida tropicalis NRRL-Y-112; type: cell-based; settings: Candida tropicalis, NRRLY112, 48 h
Protocol: (§1) The in vitro antifungal activity of the compounds of the present invention against a variety of fungiwas determined as follow: Test medium was prepared by dissolving first 5 g of dextrose and then 6.7 g of Bacto Yeast Nitrogen Base® (commercially available from Difco Laboratories) in 100 mL of distilled water. The solution was filter-sterilized and diluted 1:10 with 0.01M pH 8.0 phosphate buffer solution, and the final pH of the medium adjusted to about pH 7.0 when necessary with either 0.1N hydrochloric acid solution of 0.1N sodium hydroxide solution. […] These concentrated stock solutions were diluted to a concentration of 200 μg/mL (twice the highest concentration desired for testing) with the test medium. Amphotericin B, similarly prepared, was used as a reference antifungal agent.
(§2) The test organisms were then inoculated into test tubes containing approximately 3 to 10 mL of test medium and the test tubes incubated overnight at 37° C. A sample of each overnight culture was placed in a test tube and diluted using the test medium until a reading of 95% transmittance was obtained in a conventional UV/visible spectrophotometer set to 560 nm. The adjusted cultures were then diluted 1:50 with test medium. These diluted cultures served as the inocula for the assays which follow and were used within 15 minutes of preparation.
(§3) Next, 2-fold serial dilutions of each test compound in test medium were prepared in a 96-well microtiter plate using calibrated microdiluters attached to an automatic (hand-held) diluter (available from Dynatech Laboratories).
(§4) Using sterile calibrated droppers or a multi-point dispenser, the diluted inoculum suspension was added to each of the wells in the plate. When inoculation was complete, the microtiter tray was covered with a plastic plate sealer to minimize evaporation. After the plate had been sealed, a hole was made above each well with a sterile 26-gauge syringe needle in order to allow gas exchange. If plate sealers were not available, the microtiter trays were stacked in groups of five or less with an empty tray on top. The microtiter trays were then incubated in a humidified chamber at 35°-37° C. for 48 hours or until growth was visible in the growth control wells.
(§5) The minimum inhibitory concentration (MIC) was defined as the lowest concentration of test compound yielding no growth, a slight haze or sparsely isolated colonies on the inoculum spot as compared to the growth control containing no test compound.

[2] = system: Torulopsis glabrata ATCC 15545; test: In vitro antifungal MIC, Torulopsis glabrata ATCC 15545; type: cell-based; settings: Nakaseomyces glabratus, ATCC15545, 48 h
Protocol: as §1, §2, §3, §4, §5

Candida albicans 579A = test: In vitro antifungal MIC, Candida albicans 579A; type: cell-based; settings: Candida albicans, 579A, 48 h
Protocol: as §1, §2, §3, §4, §5

Candida kefyr ATCC 28838 = test: In vitro antifungal MIC, Candida kefyr ATCC 28838; type: cell-based; settings: Kluyveromyces marxianus, ATCC28838, 48 h
Protocol: as §1, §2, §3, §4, §5

[3] = system: Cryptococcus albidus ATCC 34140; test: In vitro antifungal MIC, Cryptococcus albidus ATCC 34140; type: cell-based; settings: Naganishia albida, ATCC34140, 48 h
Protocol: as §1, §2, §3, §4, §5

[4] = system: Candida albicans ATCC 10231; test: In vitro antifungal MIC, Candida albicans ATCC 10231; type: cell-based; settings: Candida albicans, ATCC10231, 48 h
Protocol: as §1, §2, §3, §4, §5

[5] = in vivo; cited from earlier work
[6] = system: Aspergillus niger ATCC 16404; test: In vitro antifungal MIC, Aspergillus niger ATCC 16404; type: cell-based; settings: Aspergillus niger, ATCC16404, 48 h
Protocol: as §1, §2, §3, §4, §5

fungi = settings: cited from earlier work
[7] = system: Candida albicans ATCC 38247; test: In vitro antifungal MIC, Candida albicans ATCC 38247; type: cell-based; settings: Candida albicans, ATCC38247, 48 h
Protocol: as §1, §2, §3, §4, §5

Candida albicans CCH 442 = test: In vitro antifungal MIC, Candida albicans CCH 442; type: cell-based; settings: Candida albicans, CCH442, 48 h
Protocol: as §1, §2, §3, §4, §5

kidney function = settings: patients treated with amphotericin B; cited from earlier work
[8] = system: Candida albicans ATCC 62376; test: In vitro antifungal MIC, Candida albicans ATCC 62376; type: cell-based; settings: Candida albicans, ATCC62376, 48 h
Protocol: as §1, §2, §3, §4, §5

[9] = in vivo, cited from earlier work
[10] = system: biosynthesis of testosterone; settings: cited from earlier work

Row | SMILES | MIC [1] [µg/mL] | MIC [2] [µg/mL] | MIC (Candida albicans 579A) [µg/mL] | MIC (Candida kefyr ATCC 28838) [µg/mL] | MIC [3] [µg/mL] | MIC [4] [µg/mL] | mammalian toxicity [5] | untoward effects [5] | MIC [6] [µg/mL] | fungistatic/fungicidal action (fungi) | MIC [7] [µg/mL] | MIC (Candida albicans CCH 442) [µg/mL] | patients experiencing impaired kidney function (kidney function) [%] | MIC [8] [µg/mL] | oral bioavailability ([9]; po) | hepatotoxicity [5] | inhibition of testosterone biosynthesis [10] | oral activity ([9]; po) | absorption into the cerebrospinal fluid [9]
1 | C[C@@H]1[C@H](O)[C@@H](C)/C=C/C=C/C=C/C=C/C=C/C=C/C=C/[C@H](O[C@@H]2O[C@H](C)[C@@H](O)[C@H](N)[C@@H]2O)C[C@@H]2O[C@](O)(C[C@@H](O)C[C@@H](O)[C@H](O)CC[C@@H](O)C[C@@H](O)CC(=O)O[C@H]1C)C[C@H](O)[C@H]2C(=O)O [Amphotericin B, reference compound] | 1.56 (≈ 1.69 µM) | 3.12 (≈ 3.38 µM) | 1.56 (≈ 1.69 µM) | 1.56 (≈ 1.69 µM) | 3.12 (≈ 3.38 µM) | 1.56 (≈ 1.69 µM) | considerable | anaphylaxis, thrombocytopenia, flushing, generalized pain, convulsions, chills, fever, phlebitis, headache, anemia, anorexia and decreased kidney function | 3.12 (≈ 3.38 µM) | fungicidal | 12.5 (≈ 13.5 µM) | 1.56 (≈ 1.69 µM) | 80 | 1.56 (≈ 1.69 µM) | poor | – | – | – | –
2 | CC(=O)N1CCN(c2ccc(OCC3COC(Cn4ccnc4)(c4ccc(Cl)cc4Cl)O3)cc2)CC1 (centres unmarked) [Ketoconazole] | – | – | – | – | – | – | – | – | – | fungistatic and not fungicidal | – | – | – | – | – | hepatotoxins | inhibitors of the biosynthesis of testosterone | orally active | poorly absorbed
